Data published in patent US6660255B1, “Inhibition of gene transcription by polyamide DNA-binding ligands” (California Institute of Technology, priority 1997, dated 2003).

What was measured:
TFIIIA = assay: footprint; details: DNase I; binding inhibited >90% by 5 nM polyamide ImPyPyPy-γ-ImPyPyPy-β-Dp
5′-TGTTACA-3′ = assay: Quantitative DNase I footprint titration, pJT2B2 fragment; format: binding
LEF-1 DBD = assay: footprint; details: 10 mM Hepes pH 7.5, 100 mM KCl
[1] = biological target: 5′-AGGTCT-3′ adjacent to the TATA box of the CMV MIEP; assay: Binding to the CMV MIEP next to the TATA element; design: species or system human cytomegalovirus; details: read-out: apparent dissociation constant
Excerpt: (§1) This method is a useful general approach for modulation of gene expression. For example, specific polyamides have been designed and synthesized that bind to double stranded DNA adjacent to the TATA element of the human cytomegalovirus major immediate early promoter (CMV MIEP). Polyamide CMV-1, ImImPyPy-γ-ImPyPyPy-β-Dp, binds the identified target sequence 5′-AGGTCT-3′, where the last T of this sequence is the 5′ T of the TATA element.

[2] = system: TBP binding and basal transcription at the CMV MIEP; assay: TBP binding and basal transcription, CMV MIEP; format: biochemical, human cytomegalovirus
Excerpt: as §1

[3] = system: TBP binding and transcription at the Her-2/neu promoter; assay: TBP binding and transcription, Her-2/neu promoter; format: biochemical, human
Excerpt: (§2) In another example, a polyamide was designed to bind immediately downstream of the TATA element found in the human Her-2/neu breast cancer oncogene promoter. […] Her-2/neu is recognized to be over-expressed in several cancers, including human gynecologic adenocarcinomas, including those of the ovary, endometrium, breast, fallopian tube and cervix (Cirisano, F. D., & Karlan, B. Y., J. Soc. Gynecol. Investig. 3 99-105 (1996)).

[4] = biological target: 5′AGAATGA-3′ in the human Her-2/neu promoter; assay: Binding downstream of the Her-2/neu TATA element; details: read-out: apparent dissociation constant
Excerpt: as §2

[5] = system: 5′-WGWWWCW-3′ target sequence; details: hairpin conformation; Trauger et al. 1996; cited from earlier work
TBP (rhTBP) = TBP (rhTBP) (Homo sapiens, UniProt P20226 P20226:1-339); assay: EMSA; not inhibited by HIV-1 polyamide; details: tags: Promega; label: 32P
HIV-1 TATA element = assay: TBP binding to the HIV-1 TATA element
Procedure: TBP binds the HIV-1 TATA element with a Kd of ˜1-3 nM.

In the case of 5S RNA gene internal control region, the Kd (TFIIIA) is reported as 1 nM.

With CN(C)CCCNC(=O)CCNC(=O)c1cc(NC(=O)c2cc(NC(=O)CCNC(=O)c3cc(NC(=O)c4nc(NC(=O)CCCNC(=O)c5cc(NC(=O)c6cc(NC(=O)CCNC(=O)c7cc(NC(=O)c8nccn8C)cn7C)cn6C)cn5C)cn4C)cn3C)cn2C)cn1C [polyamide 6, ImPy-β-PyPy-γ-ImPy-β-PyPy-β-Dp] the “Equilibrium association constants, 5′-aTGTTACAt-3′” value (5′-TGTTACA-3′; 24° C., pH 7.0, 10 mM Tris.HCl, 10 mM KCl, 10 mM MgCl2, 5 mM CaCl2, mean (SD)) was “greater than 1×10^9 M^−1” and the “fold higher affinity relative to unlinked analog” value (5′-TGTTACA-3′; polyamide 6 vs 9, polyamide 3 vs 7) was ~1000 fold.

With HIV-1 LEF-1 site L2 the Kd (LEF-1 DBD; 1 mM MgCl2) was 5.8 nM.

HIV-1 LEF-1 site L3 showed a Kd (LEF-1 DBD; 1 mM MgCl2) of 4.9 nM.

In the case of HIV-1 enhancer LEF-1 site L1, the Kd (LEF-1 DBD; 1 mM MgCl2, 1 mM DTT, 1.5 nM stated in p144) is reported as 1.4 nM.

For ImImPyPy-γ-ImPyPyPy-β-Dp [CMV-1], the Kd [1] was 1 nM and the “inhibition of TBP binding and basal transcription” value [2] was “effective inhibitor”.

For ImPy-β-PyIm-γ-PyPy-β-PyPy-β-Dp [Her2-1], the “inhibition of TBP binding and transcription” value [3] was “effective inhibitor” and the Kd [4] was 0.02 nM.

For “ImPyPyPyPy-γ-ImPyPyPyPy-β-Dp [polyamide 3]”, the “affinity for seven base pair target sequence” value [5] is listed as “subnanomolar”.

B1: AdML TATA region oligo (dsDNA)
DNA 1: GATCGGGGGCTATAAAAGGGGGTGGG
DNA 2: CCCACCCCCTTTTATAGCCCCCGATC
B1: binds (TBP (rhTBP)).

B2: TBP: TATA-box binding protein, recombinant human TBP (protein, UniProt P20226 1-339, looked up)
TATA-box-binding protein: MDQNNSLPPYAQGLASPQGAMTPGIPIFSPMMPYGTGLTPQPIQNTNSLSILEEQQRQQQQQQQQQQQQQQQQQQQQQQQQQQQQQQQQQQQQQQAVAAAAVQQSTSQQATQGTSGQAPQLFHSQTLTTAPLPGTTPLYPSPMTPMTPITPATPASESSGIVPQLQNIVSTVNLGCKLDLKTIALRARNAEYNPKRFAAVIMRIREPRTTALIFSSGKMVCTGAKSEEQSRLAARKYARVVQKLGFPAKFLDFKIQNMVGSCDVKFPIRLEGLVLTHQQFSSYEPELFPGLIYRMIKPRIVLLIFVSGKVVLTGAKVRAEIYEAFENIYPILKGFRKTT
B2 gave a Kd (HIV-1 TATA element) of 1 to 3 nM.
